This note sets out measurements from US11319315B2, “Cyclohexyl acid triazole azoles as LPA antagonists” (BRISTOL-MYERS SQUIBB COMPANY, priority 2017, dated 2022).

Molecules are shown by their SMILES.

T1 sequence (Q92633 whole entry): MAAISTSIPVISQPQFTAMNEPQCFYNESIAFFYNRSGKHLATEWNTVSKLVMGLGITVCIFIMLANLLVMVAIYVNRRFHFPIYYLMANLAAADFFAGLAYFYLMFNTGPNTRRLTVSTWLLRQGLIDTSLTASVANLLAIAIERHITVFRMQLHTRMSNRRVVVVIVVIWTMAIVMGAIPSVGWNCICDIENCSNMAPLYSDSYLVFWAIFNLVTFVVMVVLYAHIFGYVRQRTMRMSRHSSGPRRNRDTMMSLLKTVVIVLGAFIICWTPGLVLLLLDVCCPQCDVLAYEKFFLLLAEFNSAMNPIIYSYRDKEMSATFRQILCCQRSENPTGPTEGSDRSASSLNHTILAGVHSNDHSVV

The first test has as its target T1, human LPA1 (Homo sapiens, UniProt Q92633).
T1 construct: expressed in transfected cells; host or cells: Chinese hamster ovary (CHO) cells
Briefly: LPA1 functional antagonist assay (LPA-induced calcium flux in CHO cells overexpressing human LPA1). The conditions noted are these: inhibition of calcium flux induced by 10 nM LPA, CHO cells overexpressing human LPA1; read-out: hLPA1 IC50. The class given is cell-based. The essentials:
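CHO cells overexpressing human LPA1, dye-loaded 30 min at 37 °C, then given compound (0.08 nM–5 μM final, 0.5% DMSO) in HBSS/20 mM HEPES/0.1% fatty-acid-free BSA for 20 min at room temperature before 10 nM LPA. IC50 as 50% inhibition of LPA-evoked calcium flux, 4-parameter logistic fit.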
A general note: Calcium assays in cells follow changes in intracellular calcium, usually with a dye or a luminescent sensor.
On to `CCC(OC)c1nc(NCc2c(-c3ccc(O[C@H]4CCC[C@H](C(=O)O)C4)c(C)n3)nnn2C)no1` (mixture of isomers) [Example 217, (1S,3S)-3-((6-(5-(((5-(1-methoxy-propyl)-1,2,4-oxadiazol-3-yl)amino)methyl)-1-methyl-1H-1,2,3-triazol-4-yl)-2-methylpyridin-3-yl)oxy) cyclo-hexane-1-carboxylic acid], for which the IC50 (commonly the point on the concentration scale where inhibition reaches its midpoint) came out at 84 nM.
Still for that read-out and setting: under `Cc1nc(-c2nnn(C)c2CNc2cn(CC(C)C)nn2)ccc1O[C@H]1CCC[C@H](C(=O)O)C1` [Example 23, (1 S,3 S)-3-((6-(5-(((1-isobutyl-1H-1,2,3-triazol-4-yl)amino)methyl)-1-methyl-1H-1,2,3-triazol-4-yl)-2-methylpyridin-3-yl)oxy)cyclohexane-1-carboxylic acid] stands 435 nM.
With `Cc1nc(-c2nnn(C)c2CNc2noc(C(C)C3CC3)n2)ccc1O[C@H]1CCC[C@H](C(=O)O)C1` (some centres unmarked) [Example 193], the IC50 worked out at 33 nM.
On to `CCCCc1nnnn1Cc1c(-c2ccc(O[C@H]3CCC[C@H](C(=O)O)C3)c(C)n2)nnn1C` [Example 112], for which the IC50 turned out to be 176 nM.
The same measure, in the same setting: under `Cc1nc(-c2nnn(C)c2Cn2nnnc2N2CCCC2)ccc1O[C@H]1CCC[C@H](C(=O)O)C1` [Example 311, (1S,3S)-3-{[2-methyl-6-(1-methyl-5-{[5-(pyrrolidin-1-yl)-1H-1,2,3,4-tetrazol-1-yl]methyl}-1H-1,2,3-triazol-4-yl)pyridin-3-yl]oxy}cyclohexane-1-carboxylic acid] stands 605 nM.
On the same count and under the same terms, under `Cc1nc(-c2nnn(C)c2Cn2nnc(COc3ccccc3)n2)ccc1O[C@H]1CCC[C@H](C(=O)O)C1` [Example 300, (1S,3S)-3-{[2-methyl-6-(1-methyl-5-{[5-(phenoxymethyl)-2H-1,2,3,4-tetrazol-2-yl]methyl}-1H-1,2,3-triazol-4-yl)pyridin-3-yl]oxy}cyclohexane-1-carboxylic acid] stands 98 nM; under `Cn1nnc(-c2ccc(O[C@H]3CCC[C@H](C(=O)O)C3)cn2)c1CNc1noc(C2CCCC2)n1` [Example 289, (1S,3S)-3-((6-(5-(((5-cyclopentyl-1,2,4-oxadiazol-3-yl)amino)methyl)-1-methyl-1H-1,2,3-triazol-4-yl)pyridin-3-yl)oxy)cyclohexane-1-carboxylic acid], 50.7 nM; under `Cc1nc(-c2nnn(C)c2Cn2cc(Cc3ccccc3)cn2)ccc1O[C@H]1CCC[C@H](C(=O)O)C1` [Example 80, (1 S,3 S)-3-((6-(5-((4-benzyl-1H-pyrazol-1-yl)methyl)-1-methyl-1H-1,2,3-triazol-4-yl)-2-methylpyridin-3-yl)oxy)cyclohexane-1-carboxylic acid], 15 nM.
Still for that read-out and setting: under `Cc1nc(-c2nnn(C)c2CNc2noc(C(C)C)n2)ccc1O[C@H]1CCC[C@H](C(=O)O)C1` [Example 174] stands 223 nM; under `Cc1nc(-c2nnn(C)c2Cn2nnc(OC3CCC3)n2)ccc1O[C@H]1CCC[C@@H](C(=O)O)C1` [Example 335, (1R,3S)-3-[(6-{5-[(5-cyclobutoxy-2H-1,2,3,4-tetrazol-2-yl)methyl]-1-methyl-1H-1,2,3-triazol-4-yl}-2-methylpyridin-3-yl)oxy]cyclo-hexane-1-carboxylic acid], 405 nM; under `Cc1nc(-c2nnn(C)c2Cn2nnc(-c3ccc(F)cc3)n2)ccc1O[C@H]1CCC[C@H](C(=O)O)C1` [Example 322, (1S,3S)-3-((6-(5-((5-(4-fluoro-phenyl)-2H-tetrazol-2-yl)methyl)-1-methyl-1H-1,2,3-triazol-4-yl)-2-methylpyridin-3-yl)oxy)cyclo-hexane-1-carboxylic acid], 243 nM.
Take `Cc1nc(-c2nnn(C)c2CNc2nc(C(C)C)ns2)ccc1O[C@H]1CCC[C@H](C(=O)O)C1` [Example 10]: the IC50 came to 71 nM.
On the same count and under the same terms, under `Cc1nc(-c2nnn(C)c2CNc2ncc(C(C)C)s2)ccc1O[C@H]1CCC[C@H](C(=O)O)C1` [Example 15] stands 55 nM; under `Cn1nnc(-c2ccc(O[C@H]3CCC[C@H](C(=O)O)C3)cn2)c1Cn1nnc(CC2CC2)n1` [Example 250, (1 S,3 S)-3-((6-(5-((5-(cyclopropylmethyl)-2H-tetrazol-2-yl)methyl)-1-methyl-1H-1,2,3-triazol-4-yl)pyridin-3-yl)oxy)cyclohexane-1-carboxylic acid], 44 nM.
Same read-out and setting: under `Cc1nc(-c2nnn(C)c2CNc2nnc(-c3ccccc3)o2)ccc1O[C@H]1CCC[C@H](C(=O)O)C1` [Example 49] stands 180 nM; under `Cc1nc(-c2nnn(C)c2Cn2nnc(OCC3CC3)n2)ccc1O[C@H]1CCC[C@H](C(=O)O)C1` [Example 348, (1S,3S)-3-{[6-(5-{[5-(cyclopropyl-methoxy)-2H-1,2,3,4-tetrazol-2-yl]methyl}-1-methyl-1H-1,2,3-triazol-4-yl)-2-methylpyridin-3-yl]oxy}cyclohexane-1-carboxylic acid], 26 nM.
Take `Cc1nc(-c2nnn(C)c2Cn2nnnc2CC2CC2)ccc1O[C@H]1CCC[C@H](C(=O)O)C1` [Example 106, (1S,3S)-3-((6-(5-((5-(cyclopropylmethyl)-1H-tetrazol-1-yl)methyl)-1-methyl-1H-1,2,3-triazol-4-yl)-2-methylpyridin-3-yl)oxy)cyclohexane-1-carboxylic acid]: the IC50 came to 147 nM.
Consider `Cc1nc(-c2nnn(C)c2CNc2noc(-c3ccccc3)n2)ccc1O[C@H]1CCC[C@H](C(=O)O)C1` [Example 65], for which the IC50 amounted to 23 nM.
For the molecule `CCCn1cc(NCc2c(-c3ccc(O[C@H]4CCC[C@H](C(=O)O)C4)c(C)n3)nnn2C)nn1` [Example 11], the IC50 amounted to 705 nM.
Same read-out and setting: under `CCCc1cnc(NCc2c(-c3ccc(O[C@H]4CCC[C@H](C(=O)O)C4)c(C)n3)nnn2C)o1` [Example 138] stands 36 nM; under `CCCC(C)c1nc(NCc2c(-c3ccc(O[C@H]4CCC[C@H](C(=O)O)C4)c(C)n3)nnn2C)no1` (some centres unmarked) [Example 171], 12 nM; under `COC(C)c1nc(NCc2c(-c3ccc(O[C@H]4CCC[C@H](C(=O)O)C4)c(C)n3)nnn2C)no1` (mixture of isomers) [Example 223, (1S,3S)-3-((6-(5-(((5-(1-methoxy-ethyl)-1,2,4-oxadiazol-3-yl)amino)methyl)-1-methyl-1H-1,2,3-triazol-4-yl)-2-methylpyridin-3-yl)oxy)cyclo-hexane-1-carboxylic acid], 466 nM.
The same measure, in the same setting: under `Cc1nc(-c2nnn(C)c2CNc2noc([C@H]3C[C@@](C)(F)C3)n2)ccc1O[C@H]1CCC[C@H](C(=O)O)C1` [Example 191] stands 112 nM; under `Cc1nc(-c2nnn(C)c2Cn2nnc(OCc3ccccc3)n2)ccc1O[C@H]1CCC[C@H](C(=O)O)C1` [Example 342, (1S,3S)-3-{[6-(5-{[5-(benzyloxy)-2H-1,2,3,4-tetrazol-2-yl]methyl}-1-methyl-1H-1,2,3-triazol-4-yl)-2-methylpyridin-3-yl]oxy}cyclo-hexane-1-carboxylic acid], 11 nM; under `Cc1nc(-c2nnn(C)c2Cn2nnnc2CC2CCCC2)ccc1O[C@H]1CCC[C@H](C(=O)O)C1` [Example 315, (1S,3S)-3-{[6-(5-{[5-(cyclopentyl-methyl)-1H-1,2,3,4-tetrazol-1-yl]methyl}-1-methyl-1H-1,2,3-triazol-4-yl)-2-methylpyridin-3-yl]oxy}cyclohexane-1-carboxylic acid], 154 nM.
Regarding `CCCC(C)(C)c1nc(NCc2c(-c3ccc(O[C@H]4CCC[C@H](C(=O)O)C4)c(C)n3)nnn2C)no1` [Example 197], the half-inhibitory concentration (IC50) stood at 42 nM.
On the same count and under the same terms, under `Cc1nc(-c2nnn(C)c2CNc2noc(CCC(C)C)n2)ccc1O[C@H]1CCC[C@H](C(=O)O)C1` [Example 69] stands 15 nM; under `Cc1nc(-c2nnn(C)c2Cc2noc(CCC3CCC3)n2)ccc1O[C@H]1CCC[C@H](C(=O)O)C1` [Example 232, (1S,3S)-3-((6-(5-((5-(2-cyclobutylethyl)-1,2,4-oxadiazol-3-yl)methyl)-1-methyl-1H-1,2,3-triazol-4-yl)-2-methylpyridin-3-yl)oxy)cyclohexane-1-carboxylic acid], 8 nM.

Staying with this test, now noted: read-out: hLPA1 IC50.
For the molecule `Cc1cccc(-n2nnc(NCc3c(-c4ccc(O[C@H]5CCC[C@H](C(=O)O)C5)c(C)n4)nnn3C)n2)c1` [Example 380, (1S,3S)-3-((2-methyl-6-(1-methyl-5-(((2-(m-tolyl)-2H-tetrazol-5-yl)amino)methyl)-1H-1,2,3-triazol-4-yl)pyridin-3-yl)oxy)cyclohexane-1-carboxylic acid], the IC50 came to 183 nM.
Still for that read-out and setting: under `Cc1nc(-c2nnn(C)c2CNc2nnnn2CC2CC2)ccc1O[C@H]1CCC[C@H](C(=O)O)C1` [Example 378, (1S,3S)-3-((6-(5-(((1-(cyclopropylmethyl)-1H-tetrazol-5-yl)amino)methyl)-1-methyl-1H-1,2,3-triazol-4-yl)-2-methylpyridin-3-yl)oxy)cyclohexane-1-carboxylic acid] stands 300 nM; under `Cc1nc(-c2nnn(C)c2CNc2nnn(-c3ccccc3)n2)ccc1O[C@H]1CCC[C@H](C(=O)O)C1` [Example 389, (1S,3S)-3-((2-methyl-6-(1-methyl-5-(((2-phenyl-2H-tetrazol-5-yl)amino)methyl)-1H-1,2,3-triazol-4-yl)pyridin-3-yl)oxy)cyclohexane-1-carboxylic acid], 84 nM; under `CCc1nc(-c2nnn(C)c2Cn2cc(C(C)C)nn2)ccc1O[C@H]1CCC[C@H](C(=O)O)C1` [Example 371, (1S,3S)-3-((2-ethyl-6-(5-((4-isopropyl-1H-1,2,3-triazol-1-yl)methyl)-1-methyl-1H-1,2,3-triazol-4-yl)pyridin-3-yl)oxy)cyclohexane-1-carboxylic acid], 1540 nM.
